Test results: patent publication US8299056B2 (Signal Pharmaceuticals, LLC, priority 2008, dated 2012)

Each molecule was assayed against T1, Syk (Homo sapiens, UniProt P43405) (assay: Syk HTRF assay). Details: IC50 activity level, read-out: Activity Level.
T1 construct: purchased Carna Biosciences
Type: biochemical
How it was run: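 Read-out is the 665 nm/615 nm time-resolved fluorescence ratio after EDTA stop and Eu-anti-phosphotyrosine plus streptavidin-DyLight 647 detection. Reaction ran 1 h at room temperature with start mix of 87.5 μM ATP and 80 nM substrate peptide in pH 7.6 HEPES/MgCl2 buffer.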

| Structure (SMILES) | IC50 |
| --- | --- |
| NCCn1cnc2cc(-c3cccc4nc(Nc5ccccc5)nn34)ccc21 [Example 490, 5-(1-(2-aminoethyl)-1H-benzo[d]imidazol-5-yl)-N-phenyl-[1,2,4]triazolo[1,5-a]pyridin-2-amine] | 1000 to 10000 nM |
| c1ccc(Nc2nc3cccc(Nc4ccccn4)n3n2)cc1 [Example 484, N^2-phenyl-N^5-(pyridin-2-yl)-[1,2,4]triazolo[1,5-a]pyridin-2,5-diamine] | 500 to 1000 nM |
| NCCN1Cc2ccc(-c3cccc4nc(Nc5ccccc5)nn34)cc2C1=O [Example 495, 2-(2-aminoethyl)-6-(2-(phenylamino)-[1,2,4]triazolo[1,5-a]pyridin-5-yl)isoindolin-1-one] | 1000 to 10000 nM |
| CNC(=O)c1ccc(Nc2nc3cccc(NC4CCCC4)n3n2)cc1 [Example 400, 4-(5-(cyclopentylamino)-[1,2,4]triazolo[1,5-a]pyridin-2-ylamino)-N-methylbenzamide] | 0.005 to 250 nM |
| Fc1ccc(Nc2nc3cccc(-c4ccc5cn[nH]c5c4)n3n2)cc1 [Example 436, N-(4-fluorophenyl)-5-(1H-indazol-6-yl)-[1,2,4]triazolo[1,5-a]pyridin-2-amine] | 0.005 to 250 nM |
| Cc1n[nH]c2cc(Nc3nc4cccc(C(F)(F)C5COCCO5)n4n3)ccc12 (stereo not drawn) [Example 563, 5-((1,4-dioxan-2-yl)difluoromethyl)-N-(3-methyl-1H-indazol-6-yl)-[1,2,4]triazolo[1,5-a]pyridin-2-amine] | 0.005 to 250 nM |
| O=C1NCc2c1cccc2-c1cccc2nc(Nc3ccccc3)nn12 [Example 499, 4-(2-(phenylamino)-[1,2,4]triazolo[1,5-a]pyridin-5-yl)-isoindolin-1-one] | 1000 to 10000 nM |
| NC(=O)c1ccc(Nc2nc3cccc(N[C@H]4CC[C@@H](N)CC4)n3n2)cc1 [Example 493, cis-4-(5-(4-aminocyclohexylamino)-[1,2,4]triazolo[1,5-a]pyridin-2-ylamino)benzamide] | 0.005 to 250 nM |
| Fc1ccc(Nc2nc3cccc(NC4CCCNC4)n3n2)cc1 (stereo in doubt) [Example 462, (R)-N^2-(4-fluorophenyl)-N^5-(piperidin-3-yl)-[1,2,4]triazolo[1,5-a]pyridin-2,5-diamine] | 1000 to 10000 nM |
| C[C@H](Cc1cccc2nc(Nc3ccccc3)nn12)C(N)=O [Example 460, (R)-2-methyl-3-(2-(phenylamino)-[1,2,4]triazolo[1,5-a]pyridin-5-yl)propanamide] | 1000 to 10000 nM |
| Cn1ncc2ccc(Nc3nc4cccc(NC5CCCNC5)n4n3)cc21 (stereo in doubt) [Example 463, (R)-N^2-(1-methyl-1H-indazol-6-yl)-N^5-(piperidin-3-yl)-[1,2,4]triazolo[1,5-a]pyridin-2,5-diamine] | 500 to 1000 nM |
| CC(CN)Cc1cccc2nc(Nc3ccccc3)nn12 (stereo in doubt) [Example 459, (S)-5-(3-amino-2-methylpropyl)-N-phenyl-[1,2,4]triazolo[1,5-a]pyridin-2-amine] | 1000 to 10000 nM |
| COCc1n[nH]c2cc(Nc3nc4cccc(CN5CCNC(=O)C5)n4n3)ccc12 [Example 533, 4-((2-(3-(methoxymethyl)-1H-indazol-6-ylamino)-[1,2,4]triazolo[1,5-a]pyridin-5-yl)methyl)piperazin-2-one] | 0.005 to 250 nM |

Same assay, conditions: activity levels A-D, read-out: Activity Level (IC50 in the Syk HTRF assay)

| Structure (SMILES) | IC50 |
| --- | --- |
| CNC(=O)c1ccc(Nc2nc3cccc(CCC4CCNCC4)n3n2)cc1 [Example 254, N-methyl-4-(5-(2-(piperidin-4-yl)ethyl)-[1,2,4]triazolo[1,5-a]pyridin-2-ylamino)benzamide] | 500 to 1000 nM |
| O[C@H]1CCC[C@H](Nc2cccc3nc(Nc4ccc(C(F)(F)F)cc4)nn23)C1 (racemic) [Example 373, (±)trans-3-(2-(4-(trifluoromethyl)phenylamino)-[1,2,4]triazolo[1,5-a]pyridin-5-ylamino)cyclohexanol] | 500 to 1000 nM |
| OCCOc1cc(Nc2nc3cccc(N[C@H]4CC[C@@H](O)CC4)n3n2)ccn1 [Example 277, cis-4-(2-(2-(2-hydroxyethoxy)pyridin-4-ylamino)-[1,2,4]triazolo[1,5-a]pyridin-5-ylamino)cyclohexanol] | 0.005 to 250 nM |
| O[C@H]1CC[C@@H](Nc2cccc3nc(Nc4ccc(N5CCOCC5)nc4)nn23)CC1 [Example 313, cis-4-(2-(6-morpholinopyridin-3-ylamino)-[1,2,4]triazolo[1,5-a]pyridin-5-ylamino)cyclohexanol] | 0.005 to 250 nM |
| O=C1CN(Cc2cccc3nc(Nc4ccc(C(F)(F)F)cc4)nn23)CCN1 [Example 388, 4-((2-(4-(trifluoromethyl)phenylamino)-[1,2,4]-triazolo[1,5-a]pyridin-5-yl)methyl)piperazin-2-one] | 0.005 to 250 nM |

Same assay, conditions: read-out: Activity Level (Syk HTRF assay IC50)

| Structure (SMILES) | IC50 |
| --- | --- |
| CC1(C)C(=O)Nc2cc(Nc3nc4cccc(NC5CCCNC5)n4n3)ccc21 (stereo in doubt) [Example 154, (S)-3,3-dimethyl-6-(5-(piperidin-3-ylamino)-[1,2,4]triazolo[1,5-a]pyridin-2-ylamino)indolin-2-one] | 0.005 to 250 nM |
| NC(=O)c1ccc(Nc2nc3cccc(-c4ccccc4)n3n2)cc1F [compound 73, 2-fluoro-4-(5-phenyl-[1,2,4]triazolo[1,5-a]pyridin-2-ylamino)benzamide] | 1000 to 10000 nM |
| Nc1ccc(-c2cccc3nc(Nc4ccccc4)nn23)cc1 [compound 82, 5-(4-aminophenyl)-N-phenyl-[1,2,4]triazolo[1,5-a]pyridin-2-amine] | 250 to 500 nM |
| c1ccc(-c2cccc3nc(Nc4ccc5c(c4)CNC5)nn23)cc1 [compound 53] | 0.005 to 250 nM |
| CC1(C)C(=O)Nc2cc(Nc3nc4cccc(N5CC(O)C5)n4n3)ccc21 [Example 170, 6-(5-(3-hydroxyazetidin-1-yl)-[1,2,4]triazolo[1,5-a]pyridin-2-ylamino)-3,3-dimethylindolin-2-one] | 0.005 to 250 nM |
| COCc1nc2ccc(Nc3nc4cccc(NC5CCOCC5)n4n3)cc2[nH]1 [Example 142, N^2-(2-(methoxymethyl)-1H-benzo[d]imidazol-6-yl)-N^5-(tetrahydro-2H-pyran-4-yl)-[1,2,4]triazolo[1,5-a]pyridine-2,5-diamine] | 250 to 500 nM |
| Cn1nc(N)c2ccc(Nc3nc4cccc(-c5ccccc5)n4n3)cc21 [compound 35] | 0.005 to 250 nM |
| NCCN1Cc2cc(Nc3nc4cccc(-c5ccccc5)n4n3)ccc2C1=O [compound 45, 2-(2-aminoethyl)-5-(5-phenyl-[1,2,4]triazolo[1,5-a]pyridin-2-ylamino)isoindolin-1-one] | 250 to 500 nM |
| CN(c1cccc2nc(Nc3ccc4c(c3)NC(=O)C4(C)C)nn12)C1CCOCC1 [Example 158, 3,3-dimethyl-6-(5-(methyl(tetrahydro-2H-pyran-4-yl)amino)-[1,2,4]triazolo[1,5-a]pyridin-2-ylamino)indolin-2-one] | 0.005 to 250 nM |
| CN1C(=O)Cc2ccc(Nc3nc4cccc(N[C@H]5CC[C@@H](O)CC5)n4n3)cc21 [Example 192, cis-6-(5-(4-hydroxycyclohexylamino)-[1,2,4]triazolo[1,5-a]pyridin-2-ylamino)-1-methylindolin-2-one] | 0.005 to 250 nM |
| CNC(=O)c1ccc(Nc2nc3cccc(-c4cc(Cl)cc(CCCN)c4)n3n2)cc1 [compound 6, 4-(5-(3-(3-aminopropyl)-5-chlorophenyl)-[1,2,4]triazolo-[1,5-a]pyridin-2-ylamino)-N-methylbenzamide] | 0.005 to 250 nM |
| COc1ccc(Nc2nc3cccc(-c4ccccc4)n3n2)cn1 [compound 71, N-(6-methoxypyridin-3-yl)-5-phenyl-[1,2,4]triazolo[1,5-a]pyridin-2-amine] | 1000 to 10000 nM |
